From the NIST ThermoML archive (doi:10.1016/j.jct.2016.03.026)
Several values for one entry are separate records, joined by “and”; a condition that tells them apart may be missing. Identical values can stand only once.

Assay: xn = mol fraction of the nth substance listed
Conditions: 298.13 K, Fluid (supercritical or subcritical phases), Frequency=5 MHz, Pulse-echo method

O=C=O [carbon dioxide] + CO
Conditions | speed of sound
40050 kPa, x1 = 0.7534 | 817.8 m/s
44960 kPa, x1 = 0.925 | 802 m/s
44980 kPa, x1 = 0.925 | 802.5 m/s
45000 kPa, x1 = 0.8502 | 812.9 m/s
45000 kPa, x1 = 0.925 | 803.5 m/s
45020 kPa, x1 = 0.7534 | 848.9 m/s
45020 kPa, x1 = 0.925 | 803 m/s
49980 kPa, x1 = 0.925 | 832.4 m/s and 833.5 m/s
49990 kPa, x1 = 0.925 | 832.8 m/s
50010 kPa, x1 = 0.925 | 833.6 m/s
50070 kPa, x1 = 0.7534 | 878.2 m/s
50080 kPa, x1 = 0.8502 | 843 m/s
54890 kPa, x1 = 0.7534 | 904.5 m/s
54910 kPa, x1 = 0.8502 | 869.9 m/s
54940 kPa, x1 = 0.925 | 860.9 m/s
54950 kPa, x1 = 0.925 | 860.2 m/s
54970 kPa, x1 = 0.925 | 861.2 m/s
55000 kPa, x1 = 0.925 | 860.7 m/s
59950 kPa, x1 = 0.8502 | 896.4 m/s
59970 kPa, x1 = 0.925 | 886.8 m/s
60000 kPa, x1 = 0.925 | 887 m/s
60010 kPa, x1 = 0.925 | 887.7 m/s
60020 kPa, x1 = 0.925 | 887.7 m/s
60230 kPa, x1 = 0.7534 | 932.1 m/s
64680 kPa, x1 = 0.7534 | 953.8 m/s
64950 kPa, x1 = 0.925 | 912 m/s
64960 kPa, x1 = 0.925 | 911.8 m/s
64990 kPa, x1 = 0.925 | 912.4 m/s
65010 kPa, x1 = 0.925 | 911.9 m/s
65100 kPa, x1 = 0.8502 | 922 m/s
69930 kPa, x1 = 0.8502 | 944.8 m/s
69960 kPa, x1 = 0.925 | 935.2 m/s
69970 kPa, x1 = 0.925 | 935.8 m/s
69980 kPa, x1 = 0.925 | 935.3 m/s
70000 kPa, x1 = 0.925 | 936 m/s
70030 kPa, x1 = 0.7534 | 978.8 m/s
74960 kPa, x1 = 0.925 | 957.7 m/s
74970 kPa, x1 = 0.925 | 957.9 m/s and 958.4 m/s
75000 kPa, x1 = 0.925 | 958.5 m/s
75120 kPa, x1 = 0.8502 | 968.2 m/s
75550 kPa, x1 = 0.7534 | 1003.2 m/s
79950 kPa, x1 = 0.925 | 979.9 m/s
79970 kPa, x1 = 0.925 | 979.7 m/s
79990 kPa, x1 = 0.8502 | 989 m/s
79990 kPa, x1 = 0.925 | 979.4 m/s
80530 kPa, x1 = 0.7534 | 1024.4 m/s
89880 kPa, x1 = 0.8502 | 1029.2 m/s
89960 kPa, x1 = 0.925 | 1019.7 m/s
89980 kPa, x1 = 0.925 | 1020.4 m/s
90000 kPa, x1 = 0.925 | 1020 m/s and 1020.4 m/s
90430 kPa, x1 = 0.7534 | 1064.1 m/s
99830 kPa, x1 = 0.7534 | 1098.9 m/s
99970 kPa, x1 = 0.925 | 1057.9 m/s
99990 kPa, x1 = 0.925 | 1057.5 m/s
100010 kPa, x1 = 0.8502 | 1067.3 m/s
100010 kPa, x1 = 0.925 | 1057.5 m/s
100040 kPa, x1 = 0.925 | 1057.3 m/s
109890 kPa, x1 = 0.8502 | 1102.7 m/s
109950 kPa, x1 = 0.925 | 1092.7 m/s
109980 kPa, x1 = 0.925 | 1093.2 m/s
109990 kPa, x1 = 0.925 | 1092.8 m/s and 1093.2 m/s
